Key:
[1] = test system: human breast cancer cell line (MCF-7); assay: MTT cytotoxic assay, MCF-7; format: cell-based; details: MCF7, 48 h exposure
Method: (§1) All the compounds (1–3, 4a–o) were evaluated for their in vitro cytotoxic activity against three cancer cell lines including human breast cancer cell line (MCF-7), human hepatocarcinoma cell line (SMMC-7721), human cervical carcinoma cell line (HeLa), and a noncancerous human hepatocyte cell line (LO2) using the MTT assay method. An anticancer drug etoposide (VP-16) was co-assayed as the positive control. The results of the test compounds shown as IC50 values (concentration required to inhibit tumor cell proliferation by 50%), are listed in Table 1.
(§2) The in vitro cytotoxic activities of the quinoxaline derivatives of DAA were evaluated against a human breast cancer cell line (MCF-7), human hepatocarcinoma cell line (SMMC-7721), human cervical carcinoma cell line (HeLa) and noncancerous human hepatocyte cells (LO2) via the MTT colorimetric method. Briefly, different tumor cells were grown in DMEM supplemented with 10% fetal bovine serum, penicillin (100 U/mL), and streptomycin (50 μg/mL). Cells were harvested at the log phase of growth and seeded in 96-well plates (100 μL/well at a density of 2 × 10^5 cells/mL). After 24 h of incubation at 37 °C and 5% CO2 to allow for cell attachment, cultures were exposed to various concentrations of the isolated compounds for 48 h. Finally, the MTT solution (2.5 mg/mL in PBS) was added (40 μL/well). Plates were further incubated for 4 h at 37 °C, and the formazan crystals formed were dissolved by adding 150 μL/well of DMSO. Absorption at 570 nm was measured with an ELISA plate reader. The results were expressed as IC50 values with standard deviations, which were defined as the concentrations at which a 50% survival of the cells was discerned. Etoposide (VP-16) was co-assayed as the positive control.

[2] = test system: noncancerous human hepatocyte cells (LO2); assay: MTT cytotoxic assay, LO2; format: cell-based; details: 48 h exposure, noncancerous hepatocytes
Method: as §1, §2

[3] = test system: human cervical carcinoma cell line (HeLa); assay: MTT cytotoxic assay, HeLa; format: cell-based; details: 48 h exposure
Method: as §1, §2

SMMC-7721 cells [4] = assay: Annexin V-FITC/PI dual staining assay; format: cell-based, human
Text: The apoptotic effect of compound 4b was further evaluated by a Annexin V-FITC/propidium iodide (AV/PI) dual staining assay to examine the occurrence of phosphatidylserine externalization, which facilitated the detection of live cells (lower left quadrant; AV−/PI−), early apoptotic cells (lower right quadrant; AV+/PI−), late apoptotic cells (upper right quadrant; AV+/PI+) and necrotic cells (upper left quadrant; AV−/PI+).
Apoptosis was discriminated with the Annexin V-FITC/PI dual staining assay. SMMC-7721 cells were seeded at 1 × 10^5 cells per well in 10% fetal calf serum (FBS)-DMEM into six-well plates, and treated with compound 4b for 24 h. The cells were washed twice with cold PBS and then resuspended in 1 × binding buffer (0.1 M Hepes/NaOH (pH 7.4), 1.4 M NaCl, 25 mM CaCl2) at a concentration of 1 × 10^6 cells/mL. The solution (100 μL) was transferred to 5 mL culture tubes, and 5 μL of Annexin V-FITC (BD, Pharmingen) and 5 μL of PI were added to each tube. The cells were gently vortexed, and incubated for 30 min at 25 °C in the dark. PBS (200 μL) was added to each tube. The analysis was performed on a flow cytometry (Becton-Dickinson FACSCalibur, New York, NY, USA).

SMMC-7721 cells [5] = assay: Cell cycle analysis (PI staining, flow cytometry); format: cell-based, human
Method: Subsequently, to determine the possible role of the cell cycle arrest in cell growth inhibition induced by target compounds, SMMC-7721 cells were treated with different concentrations of compound 4b. The cell cycle distribution was investigated by flow cytometric analysis after staining of DNA with propidium iodide (PI).
SMMC-7721 cells were treated with indicated concentrations of compound 4b. After incubation for 48 h, the cells were washed twice with ice-cold PBS, fixed and permeabilized with ice-cold 70% ethanol at −20 °C overnight. The cells were treated with 100 μg/mL RNase A at 37 °C for 30 min after being washed with ice-cold PBS, and finally stained with 400 μL of 1 mg/mL PI in the dark at 4 °C for 30 min. The samples were then analyzed for their DNA content by flow cytometry (Becton-Dickinson FACSCalibur, New York, NY, USA).

[6] = test system: human hepatocarcinoma cell line (SMMC-7721); assay: MTT cytotoxic assay, SMMC-7721; format: cell-based; details: 48 h exposure
Method: as §1, §2

SMMC-7721 cells [7] = assay: Hoechst 33258 staining assay; format: cell-based, human; details: SMMC-7721, 0.2, 1.0 and 5.0 μM, 24 h
Method: To investigate the morphological changes induced by compound 4b in SMMC-7721 cells, Hoechst staining was carried out. Hoechst 33258 is a cell membrane permeable dye, which stains the live cells’ nuclei uniformly as light-blue and apoptotic cells’ nuclei as round and bright-blue, on account of karyopyknosis and chromatin condensation. SMMC-7721 cells were treated with various concentrations (0, 0.2, 1.0 and 5.0 μM) of compound 4b for 24 h, and stained with Hoechst 33258.
Cells grown on a sterile cover slip in six-well plates were treated with different concentrations of the test compound for 24 h. The culture medium containing compounds was removed, and the cells were fixed in 4% paraformaldehyde for 10 min. After being washed twice with PBS, the cells were stained with 0.5 mL of Hoechst 33258 (Beyotime, Haimen, China) for 5 min, and then again washed twice with PBS. The stained nuclei were observed under a Nikon ECLIPSETE2000-S fluorescence microscope using 350 nm for excitation and 460 nm for emission.

**Q.** With `CCN(CC)Cc1nc2c(Br)cc3c(c2nc1CN(CC)CC)CCC1[C@](C)(C(=O)OC)CCC[C@]31C` (stereo partly shown) [Compound 4b, Methyl 12-bromo-2′,3′-bis((diethylamino)methyl)-13,14-pyrazinyldeisopropyl-dehydroabietate] as the compound, how does the IC50 [1] read?
**A.** 1780 ± 360 nM

**Q.** What about the IC50 [2] of the same compound?
**A.** 11100 ± 570 nM

**Q.** And the IC50 [3]?
**A.** 1080 ± 120 nM

**Q.** And the “percentage of early apoptotic cells (AV+/PI−)” value (SMMC-7721 cells [4]; SMMC-7721, 5.0 μM, 24 h (control 2.84 ± 0.26%))?
**A.** 17.44 ± 0.68%

**Q.** And the “percentage of late apoptotic cells (AV+/PI+)” value (SMMC-7721 cells [4]; SMMC-7721, 5.0 μM, 24 h (control 7.45 ± 0.42%))?
**A.** 52.36 ± 1.23%

**Q.** What about the “apoptotic cells (early + late)” value (SMMC-7721 cells [4]; SMMC-7721, 5.0 μM, 24 h (control 10.29%)) of the same compound?
**A.** 69.80%

**Q.** What about the “induction of apoptosis (Annexin V-FITC/PI)” value (SMMC-7721 cells [4]; SMMC-7721, 24 h) of the same compound?
**A.** induce the apoptosis of SMMC-7721 cells in a dose-dependent manner

**Q.** And the cell cycle arrest (SMMC-7721 cells [5]; SMMC-7721, 1.0-10.0 μM, 48 h)?
**A.** arrest SMMC-7721 cells in the G0/G1 stage

**Q.** And the G2/M phase cells (SMMC-7721 cells [5]; SMMC-7721, 48 h, end of the range 0-10.0 μM (control 10.42 ± 0.68%))?
**A.** 18.13 ± 0.13%

**Q.** And the S phase cells (SMMC-7721 cells [5]; SMMC-7721, 48 h, end of the range 0-10.0 μM (control 32.24 ± 0.21%))?
**A.** 8.54 ± 0.57%

**Q.** And the G0/G1 phase cells (SMMC-7721 cells [5]; SMMC-7721, 48 h, end of the range 0-10.0 μM (control 57.34 ± 0.48%))?
**A.** 73.33 ± 0.69%

**Q.** What about the IC50 [6] of the same compound?
**A.** 720 ± 90 nM

**Q.** What about the “nuclear morphological changes / apoptosis (Hoechst 33258)” value (SMMC-7721 cells [7]) of the same compound?
**A.** induce apoptosis of SMMC-7721 cells in a dose-dependent manner
